The compounds below were run against T1, human kinase Mps-1 (Homo sapiens, UniProt P33981) (assay: Mps-1 kinase assay (TR-FRET)). Conditions: N-terminally GST-tagged human full length recombinant Mps-1; 10 μM ATP; 1 μM peptide substrate; 15 min pre-incubation; 60 min at 22° C.
T1 construct: N-terminally GST-tagged human full length recombinant Mps-1 kinase; GST (N); purchased Invitrogen, Karslruhe, Germany PV4071
T1 sequence (P33981 1-857): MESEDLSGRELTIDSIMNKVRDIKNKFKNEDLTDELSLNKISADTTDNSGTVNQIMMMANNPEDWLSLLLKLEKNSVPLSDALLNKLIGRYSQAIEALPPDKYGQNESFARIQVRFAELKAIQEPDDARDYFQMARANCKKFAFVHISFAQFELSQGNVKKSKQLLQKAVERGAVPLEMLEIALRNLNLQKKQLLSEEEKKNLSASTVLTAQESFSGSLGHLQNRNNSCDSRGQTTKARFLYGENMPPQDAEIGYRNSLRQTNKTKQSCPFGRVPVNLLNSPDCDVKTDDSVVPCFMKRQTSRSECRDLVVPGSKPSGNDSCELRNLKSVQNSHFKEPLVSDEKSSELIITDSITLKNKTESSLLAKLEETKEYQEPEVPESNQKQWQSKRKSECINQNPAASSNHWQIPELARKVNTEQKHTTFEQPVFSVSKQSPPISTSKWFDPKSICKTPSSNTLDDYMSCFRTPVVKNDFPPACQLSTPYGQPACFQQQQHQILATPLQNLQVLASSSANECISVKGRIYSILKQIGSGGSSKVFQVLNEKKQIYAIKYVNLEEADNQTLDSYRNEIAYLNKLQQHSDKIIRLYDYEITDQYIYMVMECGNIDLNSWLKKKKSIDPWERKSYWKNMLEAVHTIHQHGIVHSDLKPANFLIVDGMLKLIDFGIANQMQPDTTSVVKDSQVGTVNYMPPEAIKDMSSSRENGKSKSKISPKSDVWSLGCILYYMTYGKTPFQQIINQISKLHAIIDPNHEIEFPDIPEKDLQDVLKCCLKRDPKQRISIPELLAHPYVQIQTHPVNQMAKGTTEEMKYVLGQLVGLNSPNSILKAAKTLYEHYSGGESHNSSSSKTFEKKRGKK
Type: biochemical
Experimental: The human kinase Mps-1 phosphorylates a biotinylated substrate peptide. Detection of the phosphorylated product is achieved by time-resolved fluorescence resonance energy transfer (TR-FRET) from Europium-labelled anti-phospho-Serine/Threonine antibody as donor to streptavidin labelled with cross-linked allophycocyanin (SA-XLent) as acceptor. Compounds are tested for their inhibition of the kinase activity.
N-terminally GST-tagged human full length recombinant Mps-1 kinase (purchased from Invitrogen, Karslruhe, Germany, cat. no PV4071) was used. As substrate for the kinase reaction a biotinylated peptide of the amino-acid sequence […] (C-terminus in amide form, purchased from Biosynthan GmbH, Berlin) was used.
The concentration of Mps-1 in the assay was adjusted to the activity of the enzyme lot and was chosen appropriate to have the assay in the linear range, typical enzyme concentrations were in the range of about 1 nM (final conc. in the 5 μl assay volume).
The resulting mixture was incubated 1 h at 22° C. to allow the binding of the phosphorylated peptide to the anti-phospho(Ser/Thr)-Europium-antibody. Subsequently the amount of phosphorylated substrate was evaluated by measurement of the resonance energy transfer from the Europium-labelled anti-phospho(Ser/Thr) antibody to the Streptavidin-XLent. Therefore, the fluorescence emissions at 620 nm and 665 nm after excitation at 350 nm was measured in a Viewlux TR-FRET reader (PerkinElmer LAS, Rodgau-Jügesheim, Germany). The “blank-corrected normalized ratio” (a Viewlux specific readout, similar to the traditional ratio of the emissions at 665 nm and at 622 nm, in which blank and Eu-donor crosstalk are subtracted from the 665 nm signal before the ratio is calculated) was taken as the measure for the amount of phosphorylated substrate.

SMILES | IC50 [nM]
COc1cccc(-c2cn3c(-c4ccc(C(=O)NC5CC5)cc4)cnc3c(NCC(C)C)n2)c1OC [Example 1-17, N-cyclopropyl-4-{6-(2,3-dimethoxyphenyl)-8-[(2-methylpropyl)amino]imidazo[1,2-a]pyrazin-3-yl}benzamide] | 14.4
CC(C)CNc1nc(-c2cccc(C(=O)NC3CC3)c2)cn2c(-c3ccc(C(=O)NC4CC4)cc3)cnc12 [Example 1-56, N-cyclopropyl-3-{3-[4-(cyclopropylcarbamoyl)phenyl]-8-[(2-methylpropyl)amino]imidazo [1,2-a]pyrazin-6-yl} benzamide] | 1.6
CC(C)CNc1nc(-c2ccc(OC(C)C)cc2)cn2c(-c3ccc(C(=O)NC4CC4)cc3)cnc12 [Example 1-58, N-cyclopropyl-4-{8-[(2-methylpropyl)amino]-6-[4-(propan-2-yloxy)phenyl]imidazo[1,2-a]pyrazin-3-yl}benzamide] | 27
Cc1cc(-c2cnc3c(NCC(C)(C)O)nc(-c4ccccc4)cn23)ccc1C(=O)NC1CC1 [Example 1-137, N-cyclopropyl-4-{8-[(2-hydroxy-2-methylpropyl)amino]-6-phenylimidazo[1,2-a]pyrazin-3-yl}-2-methylbenzamide] | 5.1
CC(C)CNc1nc(-c2ccc(F)cc2)cn2c(-c3ccc(C(=O)NC4CC4)c(F)c3)cnc12 [Example 1-109, N-cyclopropyl-2-fluoro-4-{6-(4-fluorophenyl)-8-[(2-methylpropyl)amino]imidazo[1,2-a]pyrazin-3-yl}benzamide] | 5.3
O=C(NC1CC1)c1ccc(-c2cnc3c(NCCC(F)(F)F)nc(-c4ccccc4CO)cn23)cc1F [Example 1-114, N-cyclopropyl-2-fluoro-4-{6-[2-(hydroxymethyl)phenyl]-8-[(3,3,3-tri-fluoropropyl)amino]imidazo[1,2-a]pyrazin-3-yl}benzamide] | 3.5
CC(C)CNc1nc(-c2cccc(CO)c2)cn2c(-c3ccc(C(=O)NC4CC4)cc3)cnc12 [Example 1-5, N-cyclopropyl-4-{6-[3-(hydroxymethyl)phenyl]-8-[(2-methylpropyl)amino]imidazo[1,2-a]pyrazin-3-yl}benzamide] | 1.4
CC(C)CNc1nc(-c2cccc(C(=O)Nc3ccccc3)c2)cn2c(-c3ccc(C(=O)NC4CC4)cc3)cnc12 [Example 1-57, 3-{3-[4-(cyclopropyl-carbamoyl)phenyl]-8-[(2-methylpropyl)amino]imidazo[1,2-a]pyrazin-6-yl}-N-phenylbenzamide] | 10.4
Cc1cc(-c2cnc3c(NCCC(F)(F)F)nc(-c4ccc(CO)cc4)cn23)ccc1C(=O)NC1CC1 [Example 1-123, N-cyclopropyl-4-{6-[4-(hydroxymethyl)phenyl]-8-[(3,3,3-trifluoropropyl)amino]imidazo[1,2-a]pyrazin-3-yl}-2-methyl-benzamide] | 1.2
CC(C)(O)CNc1nc(-c2cc(F)c(F)cc2F)cn2c(-c3ccc(C(=O)NC4CC4)cc3)cnc12 [Example 1-133, N-cyclopropyl-4-{8-[(2-hydroxy-2-methylpropyl)amino]-6-(2,4,5-trifluoro-phenyl)imidazo[1,2-a]pyrazin-3-yl}benzamide] | 6.1
CNC(=O)c1ccc(-c2cn3c(-c4ccc(C(=O)NC5CC5)cc4)cnc3c(NCC(C)C)n2)cc1Cl [Example 1-82, 2-chloro-4-{3-[4-(cyclopropylcarbamoyl)phenyl]-8-[(2-methylpropyl)amino]imidazo[1,2-a]pyrazin-6-yl}-N-methyl benzamide] | 1.6
O=C(NC1CC1)c1ccc(-c2cnc3c(NCC4CCCO4)nc(-c4ccccc4CO)cn23)cc1F (centres unmarked) [Example 1-118, N-cyclopropyl-2-fluoro-4-{6-[2-(hydroxymethyl)phenyl]-8-[(tetrahydro-furan-2-ylmethyl)amino]imidazo[1,2-a]pyrazin-3-yl}benzamide] | 20.1
COc1cccc(-c2cn3c(-c4ccc(C(=O)NC5CC5)cc4)cnc3c(NCC(C)C)n2)c1 [Example 1-38, N-cyclopropyl-4-{6-(3-methoxyphenyl)-8-[(2-methylpropyl)amino]imidazo[1,2-a]pyrazin-3-yl}benzamide] | 4.8
CC(C)CNc1nc(-c2cc(F)cc(F)c2)cn2c(-c3ccc(C(=O)NC4CC4)cc3)cnc12 [Example 1-60, N-cyclopropyl-4-{6-(3,5-difluorophenyl)-8-[(2-methylpropyl)amino]imidazo[1,2-a]pyrazin-3-yl}benzamide] | 42.4

Results, then the compound that gave them:

IC50 [nM] | SMILES
9.8 | O=C(NC1CC1)c1ccc(-c2cnc3c(NCCOc4ccccc4)nc(-c4ccccc4)cn23)cc1 [Example 2-40, N-cyclopropyl-4-{8-[(2-phenoxyethyl)amino]-6-phenylimidazo[1,2-a]pyrazin-3-yl}benzamide]
3.4 | C[S+]([O-])CCNc1nc(-c2ccccc2)cn2c(-c3ccc(C(=O)NC4CC4)cc3)cnc12 (centres unmarked) [Example 2-48, N-cyclopropyl-4-(8-{[2-(methylsulfinyl)ethyl]amino}-6-phenylimidazo[1,2-a]pyrazin-3-yl)benzamide]
2.9 | O=C(NC1CC1)c1ccc(-c2cnc3c(NCc4ccc(F)cc4)nc(-c4ccccc4)cn23)cc1 [Example 2-14, N-cyclopropyl-4-{8-[(4-fluorobenzyl)amino]-6-phenylimidazo[1,2-a]pyrazin-3-yl}benzamide]
7.2 | NCCCCNc1nc(-c2ccccc2)cn2c(-c3ccc(C(=O)NC4CC4)cc3)cnc12 [Example 2-67]
8.1 | CC(=O)NCCNc1nc(-c2ccccc2)cn2c(-c3ccc(C(=O)NC4CC4)cc3)cnc12 [Example 2-19, 4-(8-{[2-(acetylamino)ethyl]amino}-6-phenylimidazo[1,2-a]pyrazin-3-yl)-N-cyclopropyl-benzamide]
26.8 | CN(C)CCCNc1nc(-c2ccccc2)cn2c(-c3ccc(C(=O)NC4CC4)cc3)cnc12 [Example 2-18, N-cyclopropyl-4-(8-{[3-(dimethylamino)propyl]amino}-6-phenylimidazo[1,2-a]pyrazin-3-yl)benzamide]
3.3 | CCNc1nc(-c2ccccc2)cn2c(-c3ccc(C(=O)NC4CC4)cc3)cnc12 [Example 2-16, N-cyclopropyl-4-[8-(ethylamino)-6-phenylimidazo [1,2-a]pyrazin-3-yl]benzamide]
1.6 | NCCCCCCNc1nc(-c2ccccc2)cn2c(-c3ccc(C(=O)NC4CC4)cc3)cnc12 [Example 2-84, 4-{8-[(6-Aminohexyl)amino]-6-phenylimidazo[1,2-a]pyrazin-3-yl}-N-cyclopropylbenzamide]
10.7 | CC(C)CNc1nc(-c2ccccc2)c(Cl)n2c(-c3ccc(C(=O)NC4CC4)cc3)cnc12 [Example 3-1, 4-{5-chloro-8-[(2-methylpropyl)amino]-6-phenylimidazo[1,2-a]pyrazin-3-yl}-N-cyclopropylbenzamide]
1.1 | O=C(NC1CC1)c1ccc(-c2cnc3c(NCCC(F)(F)F)nc(-c4ccccc4)cn23)cc1 [Example 2-43, N-cyclopropyl-4-{6-phenyl-8-[(3,3,3-trifluoropropyl)amino]imidazo[1,2-a]pyrazin-3-yl} benzamide]
3.4 | O=C(NC1CC1)c1ccc(-c2cnc3c(NCCCOC[C@@H](O)CO)nc(-c4ccccc4)cn23)cc1 [Example 9-1, N-cyclopropyl-4-{8-[(3-{[(2S)-2,3-dihydroxypropyl]oxy}propyl)amino]-6-phenylimidazo[1,2-a]pyrazin-3-yl}benzamide]
13.2 | CN(C)CCCCNc1nc(-c2ccccc2)cn2c(-c3ccc(C(=O)NC4CC4)cc3)cnc12 [Example 2-38, N-cyclopropyl-4-(8-{[4-(dimethylamino)butyl]amino}-6-phenylimidazo[1,2-a]pyrazin-3-yl)benzamide]

— patent US20140187548A1, “6 SUBSTITUTED IMIDAZOPYRAZINES FOR USE AS MPS-1 AND TKK INHIBITORS IN THE TREATMENT OF HYPERPROLIFERATIVE DISORDERS” (BAYER INTELLECTUAL PROPERTY GMBH, priority 2010, published 2014)
